Data reported in patent US6358885B1, “Substituted phenylheterocyclic herbicides” (Mississippi State University, priority 1992, dated 2002).

Key:
wheat = assay: Test B preemergence/postemergence greenhouse plant response rating 0 to 10; type: in vivo, Triticum aestivum; details: 0 to 10 scale
Procedure, shortened: (§1)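 Planted seeds are treated preemergence with compound dissolved in a non-phytotoxic solvent, while postemergence applications go onto plants of two to eighteen cm. Plants stay in the greenhouse twelve to sixteen days and are then rated visually relative to controls.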

giant foxtail = assay: Test C preemergence/postemergence greenhouse plant response rating 0 to 100; type: in vivo, Setaria faberii; details: for Plant response rating, Giant foxtail: 62 g/ha, 0 to 100 scale
Procedure, shortened: (§2)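 Compounds in non-phytotoxic solvent went onto sandy loam before emergence (seeded one day earlier) or onto plants at the one-to-four leaf stage. Duck salad was treated via flood water (~2.5 cm, maintained) over silt loam.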

bedstraw = assay: as above; type: in vivo, Galium aparine; details: for Plant response rating, Bedstraw: 62 g/ha, 0 to 100 scale
Procedure, shortened: as §2

lambsquarters [1] = assay: Test B preemergence/postemergence greenhouse plant response rating 0 to 10; type: in vivo, Chenopodium album; details: 0 to 10 scale
Procedure, shortened: as §1

corn = assay: as above; type: in vivo, Zea mays; details: 0 to 10 scale
Procedure, shortened: as §1

lambsquarters [2] = assay: Test C preemergence/postemergence greenhouse plant response rating 0 to 100; type: in vivo, Chenopodium album; details: for Plant response rating Lambsquarters: 62 g/ha, 0 to 100 scale
Procedure, shortened: as §2

rice = assay: Test B preemergence/postemergence greenhouse plant response rating 0 to 10; type: in vivo, Oryza sativa; details: 0 to 10 scale
Procedure, shortened: as §1

wild oat = assay: as above; type: in vivo, Avena fatua; details: 0 to 10 scale
Procedure, shortened: as §1

downy brome = assay: Test C preemergence/postemergence greenhouse plant response rating 0 to 100; type: in vivo, Bromus tectorum; details: for Plant response rating Downy Brome: 62 g/ha, 0 to 100 scale
Procedure, shortened: as §2

cotton [3] = assay: as above; type: in vivo, Gossypium hirsutum; details: for Plant response rating, Cotton: 62 g/ha, 0 to 100 scale
Procedure, shortened: as §2

sorghum = assay: as above; type: in vivo, Sorghum bicolor
Procedure, shortened: as §2

duck salad = assay: Test C flood test plant response rating 0 to 100; type: in vivo, Heteranthera limosa
Procedure, shortened: as §2

crabgrass = assay: Test C preemergence/postemergence greenhouse plant response rating 0 to 100; type: in vivo, Digitaria sanguinalis; details: for Plant response rating, Crabgrass: 62 g/ha, 0 to 100 scale
Procedure, shortened: as §2

barnyardgrass = assay: Test C flood test plant response rating 0 to 100; type: in vivo, Echinochloa crus-galli
Procedure, shortened: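 Compounds in non-phytotoxic solvent applied preemergence to sandy loam one day after planting, postemergence at the 1–4 leaf stage, or to ~2.5 cm floodwater over silt loam.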

cotton [4] = assay: Test B preemergence/postemergence greenhouse plant response rating 0 to 10; type: in vivo, Gossypium hirsutum; details: 0 to 10 scale
Procedure, shortened: as §1

velvetleaf = assay: Test C preemergence/postemergence greenhouse plant response rating 0 to 100; type: in vivo, Abutilon theophrasti
Procedure, shortened: as §2

cheatgrass = assay: Test B preemergence/postemergence greenhouse plant response rating 0 to 10; type: in vivo, Bromus secalinus; details: 0 to 10 scale
Procedure, shortened: as §1

sugar beet = assay: Test C preemergence/postemergence greenhouse plant response rating 0 to 100; type: in vivo, Beta vulgaris
Procedure, shortened: as §2

[5] = POSTEMERGENCE, 62 g/ha, 0 to 100 scale
[6] = POSTEMERGENCE section, flood test, Rate 1 g/ha
[7] = POSTEMERGENCE section, flood test, Rate 4 g/ha
[8] = Rate 16 g/ha, under POSTEMERGENCE head (flood test species)
[9] = flood test species listed under POSTEMERGENCE, 62 g/ha, 0 to 100 scale

SMILES: CCN1C(=O)COc2cc(F)c(-c3nn4c(c3Cl)CCCC4)cc21 [Compound 54]
- Plant response rating, Wheat (wheat; POSTEMERGENCE, Rate 10 g/ha): 6
- Plant response rating, Wheat (wheat; POSTEMERGENCE, Rate 50 g/ha): 6
- Plant response rating, Wheat (wheat; PREEMERGENCE, Rate 50 g/ha): 3
- Plant response rating, Giant foxtail (giant foxtail; POSTEMERGENCE): 70
- Plant response rating (0 to 100), Giant foxtail (giant foxtail; POSTEMERGENCE, Rate 1 g/ha): 10
- Plant response rating (0 to 100), Giant foxtail (giant foxtail; POSTEMERGENCE, Rate 4 g/ha): 20
- Plant response rating, Giant foxtail (giant foxtail; PREEMERGENCE): 60
- Plant response rating (0 to 100), Giant foxtail (giant foxtail; PREEMERGENCE, Rate 1 g/ha): 0
- Plant response rating (0 to 100), Giant foxtail (giant foxtail; PREEMERGENCE, Rate 4 g/ha): 0
- Plant response rating (0 to 100), Giant foxtail (giant foxtail; Rate 16 g/ha, POSTEMERGENCE): 40
- Plant response rating (0 to 100), Giant foxtail (giant foxtail; Rate 16 g/ha, PREEMERGENCE): 0
- Plant response rating, Bedstraw (bedstraw; POSTEMERGENCE): 100
- Plant response rating (0 to 100), Bedstraw (bedstraw; POSTEMERGENCE, Rate 1 g/ha): 65
- Plant response rating (0 to 100), Bedstraw (bedstraw; POSTEMERGENCE, Rate 4 g/ha): 85
- Plant response rating, Bedstraw (bedstraw; PREEMERGENCE): 50
- Plant response rating (0 to 100), Bedstraw (bedstraw; PREEMERGENCE, Rate 1 g/ha): 0
- Plant response rating (0 to 100), Bedstraw (bedstraw; PREEMERGENCE, Rate 4 g/ha): 0
- Plant response rating (0 to 100), Bedstraw (bedstraw; Rate 16 g/ha, POSTEMERGENCE): 100
- Plant response rating (0 to 100), Bedstraw (bedstraw; Rate 16 g/ha, PREEMERGENCE): 30
- Plant response rating, Lambsquarter (lambsquarters [1]; POSTEMERGENCE, Rate 10 g/ha): 10
- Plant response rating, Lambsquarter (lambsquarters [1]; POSTEMERGENCE, Rate 50 g/ha): 10
- Plant response rating, Lambsquarter (lambsquarters [1]; PREEMERGENCE, Rate 50 g/ha): 10
- Plant response rating, Corn (corn; POSTEMERGENCE, Rate 10 g/ha): 3
- Plant response rating, Corn (corn; POSTEMERGENCE, Rate 50 g/ha): 3
- Plant response rating, Corn (corn; PREEMERGENCE, Rate 50 g/ha): 0
- Plant response rating Lambsquarters (lambsquarters [2]; POSTEMERGENCE): 100
- Plant response rating (0 to 100), Lambsquarters (lambsquarters [2]; POSTEMERGENCE, Rate 1 g/ha): 10
- Plant response rating (0 to 100), Lambsquarters (lambsquarters [2]; POSTEMERGENCE, Rate 4 g/ha): 50
- Plant response rating Lambsquarters (lambsquarters [2]; PREEMERGENCE): 100
- Plant response rating (0 to 100), Lambsquarters (lambsquarters [2]; PREEMERGENCE, Rate 1 g/ha): 0
- Plant response rating (0 to 100), Lambsquarters (lambsquarters [2]; PREEMERGENCE, Rate 4 g/ha): 60
- Plant response rating (0 to 100), Lambsquarters (lambsquarters [2]; Rate 16 g/ha, POSTEMERGENCE): 75
- Plant response rating (0 to 100), Lambsquarters (lambsquarters [2]; Rate 16 g/ha, PREEMERGENCE): 100
- Plant response rating, Rice (rice; POSTEMERGENCE, Rate 10 g/ha): 3
- Plant response rating, Rice (rice; POSTEMERGENCE, Rate 50 g/ha): 4
- Plant response rating, Rice (rice; PREEMERGENCE, Rate 50 g/ha): 0
- Plant response rating, Wild oat (wild oat; POSTEMERGENCE, Rate 10 g/ha): 4
- Plant response rating, Wild oat (wild oat; POSTEMERGENCE, Rate 50 g/ha): 7
- Plant response rating, Wild oat (wild oat; PREEMERGENCE, Rate 50 g/ha): 2
- Plant response rating Downy Brome (downy brome; POSTEMERGENCE): 60
- Plant response rating (0 to 100), Downy Brome (downy brome; POSTEMERGENCE, Rate 1 g/ha): 10
- Plant response rating (0 to 100), Downy Brome (downy brome; POSTEMERGENCE, Rate 4 g/ha): 30
- Plant response rating Downy Brome (downy brome; PREEMERGENCE): 30
- Plant response rating (0 to 100), Downy Brome (downy brome; PREEMERGENCE, Rate 1 g/ha): 0
- Plant response rating (0 to 100), Downy Brome (downy brome; PREEMERGENCE, Rate 4 g/ha): 0
- Plant response rating (0 to 100), Downy Brome (downy brome; Rate 16 g/ha, POSTEMERGENCE): 50
- Plant response rating (0 to 100), Downy Brome (downy brome; Rate 16 g/ha, PREEMERGENCE): 20
- Plant response rating, Cotton (cotton [3]; POSTEMERGENCE): 100
- Plant response rating (0 to 100), Cotton (cotton [3]; POSTEMERGENCE, Rate 1 g/ha): 70
- Plant response rating (0 to 100), Cotton (cotton [3]; POSTEMERGENCE, Rate 4 g/ha): 95
- Plant response rating, Cotton (cotton [3]; PREEMERGENCE): 40
- Plant response rating (0 to 100), Cotton (cotton [3]; PREEMERGENCE, Rate 1 g/ha): 0
- Plant response rating (0 to 100), Cotton (cotton [3]; PREEMERGENCE, Rate 4 g/ha): 0
- Plant response rating (0 to 100), Cotton (cotton [3]; Rate 16 g/ha, POSTEMERGENCE): 100
- Plant response rating (0 to 100), Cotton (cotton [3]; Rate 16 g/ha, PREEMERGENCE): 0
- Plant response rating, Sorghum (sorghum; [5]): 60
- Plant response rating (0 to 100), Sorghum (sorghum; POSTEMERGENCE, Rate 1 g/ha): 20
- Plant response rating (0 to 100), Sorghum (sorghum; POSTEMERGENCE, Rate 4 g/ha): 40
- Plant response rating (0 to 100), Sorghum (sorghum; PREEMERGENCE, Rate 1 g/ha): 0
- Plant response rating (0 to 100), Sorghum (sorghum; PREEMERGENCE, Rate 4 g/ha): 0
- Plant response rating (0 to 100), Sorghum (sorghum; Rate 16 g/ha, POSTEMERGENCE): 50
- Plant response rating (0 to 100), Sorghum (sorghum; Rate 16 g/ha, PREEMERGENCE): 0
- Plant response rating (0 to 100), Duck salad (duck salad; [6]): 0
- Plant response rating (0 to 100), Duck salad (duck salad; [7]): 0
- Plant response rating (0 to 100), Duck salad (duck salad; [8]): 35
- Plant response rating Duck salad (duck salad; [9]): 100
- Plant response rating, Crabgrass (crabgrass; POSTEMERGENCE): 50
- Plant response rating (0 to 100), Crabgrass (crabgrass; POSTEMERGENCE, Rate 1 g/ha): 10
- Plant response rating (0 to 100), Crabgrass (crabgrass; POSTEMERGENCE, Rate 4 g/ha): 20
- Plant response rating, Crabgrass (crabgrass; PREEMERGENCE): 50
- Plant response rating (0 to 100), Crabgrass (crabgrass; PREEMERGENCE, Rate 1 g/ha): 0
- Plant response rating (0 to 100), Crabgrass (crabgrass; PREEMERGENCE, Rate 4 g/ha): 0
- Plant response rating (0 to 100), Crabgrass (crabgrass; Rate 16 g/ha, POSTEMERGENCE): 30
- Plant response rating (0 to 100), Crabgrass (crabgrass; Rate 16 g/ha, PREEMERGENCE): 0
- Plant response rating (0 to 100), Barnyardgrass 2 (barnyardgrass; [6]): 0
- Plant response rating (0 to 100), Barnyardgrass 2 (barnyardgrass; [7]): 10
- Plant response rating (0 to 100), Barnyardgrass 2 (barnyardgrass; [8]): 95
- Plant response rating Barnyardgrass 2 (barnyardgrass; [9]): 100
- Plant response rating, Cotton (cotton [4]; POSTEMERGENCE, Rate 10 g/ha): 10
- Plant response rating, Cotton (cotton [4]; POSTEMERGENCE, Rate 50 g/ha): 10
- Plant response rating, Cotton (cotton [4]; PREEMERGENCE, Rate 10 g/ha): 1
- Plant response rating, Cotton (cotton [4]; PREEMERGENCE, Rate 50 g/ha): 2
- Plant response rating, Velvetleaf (velvetleaf; [5]): 100
- Plant response rating (0 to 100), Velvetleaf (velvetleaf; POSTEMERGENCE, Rate 1 g/ha): 70
- Plant response rating (0 to 100), Velvetleaf (velvetleaf; POSTEMERGENCE, Rate 4 g/ha): 100
- Plant response rating (0 to 100), Velvetleaf (velvetleaf; PREEMERGENCE, Rate 1 g/ha): 0
- Plant response rating (0 to 100), Velvetleaf (velvetleaf; PREEMERGENCE, Rate 4 g/ha): 0
- Plant response rating (0 to 100), Velvetleaf (velvetleaf; Rate 16 g/ha, POSTEMERGENCE): 100
- Plant response rating (0 to 100), Velvetleaf (velvetleaf; Rate 16 g/ha, PREEMERGENCE): 80
- Plant response rating, Cheatgrass (cheatgrass; POSTEMERGENCE, Rate 10 g/ha): 5
- Plant response rating, Cheatgrass (cheatgrass; POSTEMERGENCE, Rate 50 g/ha): 7
- Plant response rating, Cheatgrass (cheatgrass; PREEMERGENCE, Rate 10 g/ha): 1
- Plant response rating, Cheatgrass (cheatgrass; PREEMERGENCE, Rate 50 g/ha): 3
- Plant response rating, Sugar beet (sugar beet; [5]): 100
- Plant response rating (0 to 100), Sugar beet (sugar beet; POSTEMERGENCE, Rate 1 g/ha): 100
- Plant response rating (0 to 100), Sugar beet (sugar beet; POSTEMERGENCE, Rate 4 g/ha): 100
- Plant response rating (0 to 100), Sugar beet (sugar beet; PREEMERGENCE, Rate 1 g/ha): 0
- Plant response rating (0 to 100), Sugar beet (sugar beet; PREEMERGENCE, Rate 4 g/ha): 10
- Plant response rating (0 to 100), Sugar beet (sugar beet; Rate 16 g/ha, POSTEMERGENCE): 100
- Plant response rating (0 to 100), Sugar beet (sugar beet; Rate 16 g/ha, PREEMERGENCE): 100
